Results on 1 molecule are retold here after publication PMC4206221 (Science signaling, 2011).

Each structure is given as a SMILES string.

Usually IC50 stands for the midpoint of a concentration-inhibition curve.

The target in test [1] is PLK3 (Homo sapiens, UniProt Q9H4B4). The test can be described thus: kinase inhibition IC50. The class given is biochemical.
Test [2] deals with PLK1 (Homo sapiens, UniProt P53350). The test can be described thus: kinase inhibition IC50. In kind it is biochemical.
PLK1, sequence (P53350 2-603): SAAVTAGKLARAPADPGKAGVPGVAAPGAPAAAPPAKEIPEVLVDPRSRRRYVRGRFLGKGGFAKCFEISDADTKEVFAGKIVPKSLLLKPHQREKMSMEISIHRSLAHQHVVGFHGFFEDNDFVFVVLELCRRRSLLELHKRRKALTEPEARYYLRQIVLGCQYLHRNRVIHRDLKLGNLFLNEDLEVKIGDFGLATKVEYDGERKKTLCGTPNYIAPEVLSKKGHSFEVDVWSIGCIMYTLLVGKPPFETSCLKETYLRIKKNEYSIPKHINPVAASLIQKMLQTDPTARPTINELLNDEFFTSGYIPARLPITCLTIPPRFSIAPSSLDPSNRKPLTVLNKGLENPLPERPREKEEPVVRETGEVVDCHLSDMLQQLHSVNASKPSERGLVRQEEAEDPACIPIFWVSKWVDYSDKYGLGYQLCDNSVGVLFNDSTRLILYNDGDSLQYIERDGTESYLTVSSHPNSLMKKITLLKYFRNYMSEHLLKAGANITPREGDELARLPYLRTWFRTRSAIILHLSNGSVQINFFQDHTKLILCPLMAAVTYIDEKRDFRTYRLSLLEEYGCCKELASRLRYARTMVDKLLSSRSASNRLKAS

PLK3, sequence (Q9H4B4 whole entry): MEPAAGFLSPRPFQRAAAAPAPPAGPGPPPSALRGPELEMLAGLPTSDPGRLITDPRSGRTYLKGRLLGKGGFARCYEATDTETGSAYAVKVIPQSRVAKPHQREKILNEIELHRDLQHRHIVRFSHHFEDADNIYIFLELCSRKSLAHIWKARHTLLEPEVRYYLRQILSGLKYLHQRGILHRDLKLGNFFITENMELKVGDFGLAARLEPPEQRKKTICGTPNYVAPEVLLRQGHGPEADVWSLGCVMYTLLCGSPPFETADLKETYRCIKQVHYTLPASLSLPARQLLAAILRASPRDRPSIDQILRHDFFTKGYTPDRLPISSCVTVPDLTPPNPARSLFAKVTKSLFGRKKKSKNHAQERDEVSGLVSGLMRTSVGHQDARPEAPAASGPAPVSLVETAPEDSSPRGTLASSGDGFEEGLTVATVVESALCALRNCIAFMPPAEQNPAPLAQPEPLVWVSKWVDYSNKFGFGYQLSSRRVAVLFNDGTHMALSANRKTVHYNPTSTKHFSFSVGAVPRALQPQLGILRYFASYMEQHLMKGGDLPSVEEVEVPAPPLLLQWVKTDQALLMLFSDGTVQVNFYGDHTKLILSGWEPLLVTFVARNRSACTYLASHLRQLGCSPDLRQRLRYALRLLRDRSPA

As for `CC[C@@H]1C(=O)N(C)c2cnc(Nc3ccc(C(=O)NC4CCC(N5C[C@@H](C)O[C@@H](C)C5)CC4)cc3OC)nc2N1C(C)C` (some centres unmarked) [BI 4834], the IC50 in test [1] was 198 nM; in test [2], 7.6 nM.
